Reference: US12350269B2 (Alexion Pharmaceuticals, Inc., priority 2015, dated 2025)
pIC50: −log10 of the molar value.

How the values were obtained:
PKC = experiment: Healthy normal human whole blood assay: T-cell, PMA stimulation, pERK Y204 readout; format: cell-based
IL2, IL4, IL6 signaling = experiment: Phase 1 study: whole blood PD, IL2, IL4, IL6 (JAK/STAT) signaling; format: in vivo, human
Experimental: (§1) Human Whole Blood Assays: Inhibition of SYK- and JAK-dependent and independent signaling was determined by stimulating human whole blood with various agonists against BCR and cytokine receptors. 100 μL aliquots of heparinized healthy human whole blood was stimulated as previously described (Coffey et al, J. of Pharm. and Experimental Therapeutics, 351:538-548, 2014), using an 8-point concentration curve to determine IC50's. Signaling and activation responses were determined by Fluorescence-activated cell sorting (“FACS”). For the clinical trial, whole blood samples were collected prior to and after dosing. Percent inhibition was calculated by normalizing to the pre-dose stimulation response.
(§2) Pharmacokinetics (“PK”), pharmacodynamics (“PD”), and safety were monitored. Response was assessed by standard criteria. The level of inhibition of SYK and JAK was determined using a variety of whole blood assays measuring signaling via receptors for the B-cell antigen, IL2, IL4, IL6, and GM-CSF. Serum markers of tumor burden, including CCL3, CCL4, and other markers of inflammation (β2M and CRP), were also being measured.

SYK [1] = experiment: Healthy normal human whole blood assay: B-cell, BCR stimulation, CD69 readout; format: cell-based
[2] = Phase 1 study: safety and tolerability; format: in vivo, human; conditions: for tolerability: patients with lymphoid malignancies
[3] = test system: serum inflammation markers (β2M, CRP, CCL4); experiment: Phase 1 study: serum markers of inflammation; format: in vivo, human
Experimental: Cytokine Analysis: Serum protein was analyzed by Myriad RBM (Austin, TX) using the Human Inflammation Map.
as §2

primary CLL cells = experiment: Primary CLL cell viability assay (propidium iodide, 72 hours); format: cell-based, human
Experimental: (§3) Isolated CLL cells were cultured in RPMI-1640 with 15% fetal bovine serum (Gibco, Grand Island, NY, USA), penicillin (100 IU), and streptomycin (100 μg/mL), at a density of 1×10^7 cells/mL in the presence or absence of […] CpG, 100 ng/mL CD40L, 10 ng/mL IL-4. Anti-IgM stimulation was conducted with plate-bound anti-IgM (10 μg/mL). CLL cells were stimulated with 10 ng/mL IL-6 (R&D Systems, Minneapolis, MN), to detect the phosphorylation of JAK1/JAK2 (Cell Signaling Technology, Danvers, MA) and STAT3 (Cell Signaling Technology, Danvers, MA, USA).
Ten thousand events in a live cell gate were counted by a FACS LSR2 (BD Biosciences) and the data was normalized to the matched vehicle control for each specimen (100%). IC50 was then generated using the GraphPad Prism 6 program (San Diego, CA, USA).

JAK2 = experiment: Healthy normal human whole blood assay: Monocytes, GMCSF stimulation, pSTAT5 Y694 readout; format: cell-based; conditions: Monocyte
Zap70 = experiment: Healthy normal human whole blood assay: T-cell, TCR stimulation, pERK Y204 readout; format: cell-based
270 kinase panel = 270 kinase panel screen (Millipore); format: biochemical; conditions: the 24 kinases listed in Table 1
[4] = test system: anti-IgM induced signalling pathways; experiment: Primary CLL cells: B cell receptor induced signalling (immunoblotting, flow cytometry); format: cell-based; conditions: primary human CLL cells
Experimental: as §3

[5] = test system: ibrutinib-sensitive primary CLL cells; experiment: BrdU proliferation assay, primary CLL cells of ibrutinib responders; format: cell-based, human; conditions: 250 nM, combined stimulation, day 8
TSSK = experiment: Purified kinase assay (Millipore); format: biochemical; conditions: 300 nM ATP
[6] = test system: rat collagen induced arthritis; experiment: Rat collagen induced arthritis model; format: in vivo
Experimental: Collagen antibody titers were determined by ELISA (R&D Systems). Steady-state serum Cmax was determined using liquid chromatography-tandem mass spectrometry.
The average plasma concentrations (Cmax) for each dosing group is shown at the right of the graph. Asterisks denote statistical significant relative to vehicle by student T test (p<0.05).

15 DLBCL cell lines = experiment: DLBCL cell line panel: caspase 3 cleavage and Edu incorporation by FACS; format: cell-based
Experimental: DLBCL Cell Line Viability Assays: Cell lines, purchased from ATCC, were screened using the CellTiter Glo (Promega) assay in 384 well plates using a ten-point concentration response curve to generate IC50's. Each IC50 value is an average of at least four replicate experiments. Subsequent analysis using a FACS based caspase 3 cleavage detection kit (BD Biosciences) and Edu incorporation were performed.
In a panel of 15 cell lines representing both ABC and GCB subtypes, 9 underwent apoptosis and an additional 2 underwent cell cycle arrest.
FIG. 1 and FIG. 2 depicts bar graphs that show the percent inhibition of Edu incorporation and percent induction of caspase 3 cleavage by FACS analysis, respectively.

GM-CSF signaling = experiment: Phase 1 study: whole blood PD, GM-CSF (JAK2) signaling; format: in vivo, human
Experimental: as §1, §2

SYK [7] = experiment: Healthy normal human whole blood assay: Basophil, FcεR1 stimulation, CD63 readout; format: cell-based
JAK1/3 = experiment: Healthy normal human whole blood assay: T-cell, IL4 stimulation, PSTAT6 Y641 readout; format: cell-based
JAK1/TYK2 = experiment: Healthy normal human whole blood assay: Monocytes, IL6 stimulation, pSTAT3 Y705 readout; format: cell-based; conditions: Monocyte
Solubility = format: physicochemical; conditions: contemplated to limit dissolution
BCR signaling = experiment: Phase 1 study: whole blood PD, BCR signaling; format: in vivo, human
Experimental: as §1, §2

Compound: CCS(=O)(=O)N1CCN(c2ccc(Nc3ncc(C(N)=O)c(NC4CC4)n3)cc2)CC1 [cerdulatinib, 4-(cyclopropylamino)-2-(4-(4-(ethylsulfonyl)piperazin-1-yl)phenylamino)pyrimidine-5-carboxamide]
- pIC50 (PKC): < 5.40
- JAK/STAT signaling inhibition (IL2, IL4, IL6 signaling; Cmin/Cmax): 60-80%
- % Inhibition IL2, IL4, IL6 signaling (IL2, IL4, IL6 signaling; Patient 1, 65 mg PO QD): 60-100%
- pIC50 (SYK [1]): 7.00
- dose limiting toxicities (grade 3 pancreatitis and grade 3 fatigue) ([2]; 45 mg BID dose): 2
- SS Cmin at which higher grades of adverse events appeared ([2]; PK/AE profile): 1250 to 1500 nM
- patients with related treatment emergent AE ≥grade 3: abdominal pain ([2]; n of 43 patients dosed): 2
- patients with related treatment emergent AE ≥grade 3: anemia ([2]; n of 43 patients dosed): 3
- patients with related treatment emergent AE ≥grade 3: fatigue ([2]; n of 43 patients dosed): 5
- patients with related treatment emergent AE ≥grade 3: neutropenia ([2]; n of 43 patients dosed): 3
- patients with related treatment emergent AE ≥grade 3: neutrophil count decrease ([2]; n of 43 patients dosed): 2
- patients with related treatment emergent AE ≥grade 3: pneumonia ([2]; n of 43 patients dosed): 2
- tolerability [2]: well tolerated
- tolerability ([2]; listed as Cerdulatinib): well-tolerated
- tolerability in dose escalation ([2]; up to 100 mg QD): good tolerability
- inhibition of serum markers of inflammation ([3]; QD dosing of 40-100 mg): significant inhibition
- reduction of serum β2M (and other inflammation markers) ([3]; all dose levels tested clinically): Clear evidence for reduction
- inhibition of serum inflammation markers (e.g., β2M, CRP, CCL4) ([3]; day 28 of cycle 1, plasma about 0.6 to 1 μM): 50-90%
- serum proteins that are markers of inflammation (β2M, CRP, TNFR, CCL3/4) ([3]; patients): significantly reduced
- sensitivity of CLL cells with high-risk genetic abnormalities (del (11q), trisomy 12, del(17p)) versus del (13q) or none (primary CLL cells): more sensitive
- sensitivity of CLL cells with unmutated IGHV (N=33) versus mutated IGHV (N=27) (primary CLL cells; P=0.0395): more sensitive
- pIC50 (JAK2): < 5.40
- pIC50 (Zap70): < 5.40
- inhibition of the purified kinases of Table 1 in the panel screen (270 kinase panel): > 80%
- concentration (achievable in patients) at which BCR and IL-4 mediated signalling was overcome [4]: ~2.2 µM
- BrdU incorporation (proliferation) [5]: responded equally well
- pIC50 (TSSK): 7.85
- Caverage corresponding to complete arrest of inflammation and auto-antibody generation [6]: 0.3 to 0.4 µM
- average plasma concentration at which inflammation and joint destruction were arrested [6]: 0.3 µM
- activity against DLBCL cell lines (15 DLBCL cell lines; 2 μM): broadly active
- induction of apoptosis in cell lines (15 DLBCL cell lines; 2 μM): induced apoptosis in the majority of cell lines
- additional cell lines that underwent cell cycle arrest (15 DLBCL cell lines; panel of 15 cell lines): 2
- number of cell lines that underwent apoptosis (15 DLBCL cell lines; panel of 15 cell lines, ABC and GCB subtypes): 9
- response of DB, TOLEDO, and RCK8 cell lines (15 DLBCL cell lines; three of the 15 cell lines): resistant
- concentration required to induce apoptosis and/or cell cycle arrest (15 DLBCL cell lines; variable, generally observed): ~2 µM
- % Inhibition GM-CSF (GM-CSF signaling; Patient 2): 0%
- inhibition of JAK2 or PKC (GM-CSF signaling; patients): no inhibition
- pIC50 (SYK [7]): 6.92
- pIC50 (JAK1/3): 6.24
- pIC50 (JAK1/TYK2): 6.46
- solubility (Solubility): pH-dependent low solubility
- % Inhibition of BCR (Cmin-Cmax) (BCR signaling; 40-100 mg QD doses): 92-100%
- inhibition of BCR signaling in whole blood (BCR signaling; FL patient, single 65 mg dose): complete inhibition
- inhibition at 15 mg (BCR signaling; Homo sapiens, 15 mg/day, read-out: % Inh. BCR (Cmin-Cmax) Extrapolated from PK/PD fit of all data): 22 to 55%
- inhibition at 30 mg (BCR signaling; Homo sapiens, 30 mg/day, read-out: % Inh. BCR (Cmin-Cmax) Extrapolated from PK/PD fit of all data): 31 to 83%
- inhibition at 40 mg (BCR signaling; Homo sapiens, 40 mg/day, read-out: % Inh. BCR (Cmin-Cmax) Extrapolated from PK/PD fit of all data): 92 to 100%
- inhibition at 100 mg (BCR signaling; Homo sapiens, 100 mg/day (one patient), read-out: % Inh. BCR (Cmin-Cmax) Extrapolated from PK/PD fit of all data): 53 to 98%
- % Inhibition BCR signaling (BCR signaling; Patient 1, 65 mg PO QD): 100%
- % Inhibition BCR signaling, pERK Y204 (BCR signaling; Patient 2): 0%
- % Inhibition BCR signaling, pSYK Y525/525 (BCR signaling; Patient 2): 90%
- BCR signaling pathway inhibition (BCR signaling; steady state Cmin/Cmax): 90-100%
